Converted amounts (≈) assume the structure as drawn.
Columns and labels:
Assay type in all cases: cell-based
S. aureus = assay: MIC values, S. aureus (Tables 1-4)
S. pneumo. = assay: MIC values, S. pneumo. (Tables 1-4)
E. faecalis = assay: MIC values, E. faecalis (Tables 1-4)
H. flu = system: H. flu
E. coli = assay: MIC values, E. coli (Tables 1-4)

SMILES	MIC S. aureus (S. aureus)	MIC S. pneumo. (S. pneumo.)	MIC E. faecalis (E. faecalis)	MIC H. flu (H. flu)	MIC E. coli (E. coli)
CCOC(=O)N1CCCC2CN(c3cc(O)c4nc5c6c7c8c(C)c(O)c6c(=O)c(c-5oc4c3)NC(=O)C(C)=CC=CC(C)C(O)C(C)C(O)C(C)C(O)C(C)C(OC)C=COC(C)(O8)C7=O)CC21 (centres unmarked) [Compound 42]	8 ng/mL (≈ 8.38 nM)	0.12 ng/mL (≈ 0.126 nM)	2000 ng/mL (≈ 2090 nM)	500 ng/mL (≈ 524 nM)	8000 ng/mL (≈ 8380 nM)
CO[C@H]1/C=C/O[C@@]2(C)Oc3c(C)c(O)c4c(=O)c(c5oc6cc(N7CCC(NC(C)=O)CC7)cc(O)c6nc-5c4c3C2=O)NC(=O)/C(C)=C\C=C\[C@H](C)[C@H](O)[C@@H](C)[C@@H](O)[C@@H](C)[C@H](O)[C@@H]1C [Compound 43]	30 ng/mL (≈ 33.4 nM)	2 ng/mL (≈ 2.22 nM)	2000 ng/mL (≈ 2220 nM)	500 ng/mL (≈ 556 nM)	>8000 ng/mL
CO[C@H]1/C=C/O[C@@]2(C)Oc3c(C)c(O)c4c(=O)c(c5oc6cc(N7CCC(NC(C)=O)CC7)cc(O)c6nc-5c4c3C2=O)NC(=O)/C(C)=C\C=C\[C@H](C)[C@H](O)[C@@H](C)[C@@H](O)[C@@H](C)[C@H](OC(C)=O)[C@@H]1C [Compound 44]	60 ng/mL (≈ 63.8 nM)	8 ng/mL (≈ 8.5 nM)	2000 ng/mL (≈ 2130 nM)	250 ng/mL (≈ 266 nM)	>8000 ng/mL
CO[C@H]1/C=C/O[C@@]2(C)Oc3c(C)c(O)c4c(=O)c(c5oc6cc(N7CCC(NC(=O)SC)CC7)cc(O)c6nc-5c4c3C2=O)NC(=O)/C(C)=C\C=C\[C@H](C)[C@H](O)[C@@H](C)[C@@H](O)[C@@H](C)[C@H](OC(C)=O)[C@@H]1C [Compound 45]	15 ng/mL (≈ 15.4 nM)	1 ng/mL (≈ 1.03 nM)	4000 ng/mL (≈ 4110 nM)	500 ng/mL (≈ 514 nM)	8000 ng/mL (≈ 8220 nM)
COC1C=COC2(C)Oc3c(C)c(O)c4c(=O)c(c5oc6cc(N7CC8CCCN(C(C)=O)C8C7)cc(O)c6nc-5c4c3C2=O)NC(=O)C(C)=CC=CC(C)C(O)C(C)C(O)C(C)C(O)C1C (centres unmarked) [Compound 46]	4 ng/mL (≈ 4.32 nM)	0.06 ng/mL (≈ 0.0649 nM)	2000 ng/mL (≈ 2160 nM)	500 ng/mL (≈ 541 nM)	>8000 ng/mL
COC1C=COC2(C)Oc3c(C)c(O)c4c(=O)c(c5oc6cc(N7CC8CCCN(C(C)=O)C8C7)cc(O)c6nc-5c4c3C2=O)NC(=O)C(C)=CC=CC(C)C(O)C(C)C(O)C(C)C(OC(C)=O)C1C (centres unmarked) [Compound 47]	8 ng/mL (≈ 8.27 nM)	2 ng/mL (≈ 2.07 nM)	1000 ng/mL (≈ 1030 nM)	250 ng/mL (≈ 259 nM)	>8000 ng/mL
CO[C@H]1/C=C/O[C@@]2(C)Oc3c(C)c(O)c4c(=O)c(c5oc6cc(N7CCC(NC(=O)OC(C)(C)C)CC7)cc(O)c6nc-5c4c3C2=O)NC(=O)/C(C)=C\C=C\[C@H](C)[C@H](O)[C@@H](C)[C@@H](O)[C@@H](C)[C@H](OC(C)=O)[C@@H]1C [Compound 48]	8 ng/mL (≈ 8.01 nM)	0.25 ng/mL (≈ 0.25 nM)	2000 ng/mL (≈ 2000 nM)	1000 ng/mL (≈ 1000 nM)	>8000 ng/mL
CO[C@H]1/C=C/O[C@@]2(C)Oc3c(C)c(O)c4c(=O)c(c5oc6cc(N7CCC(NC(=O)N8CCC(NC(=O)SC)CC8)CC7)cc(O)c6nc-5c4c3C2=O)NC(=O)/C(C)=C\C=C\[C@H](C)[C@H](O)[C@@H](C)[C@@H](O)[C@@H](C)[C@H](OC(C)=O)[C@@H]1C [Compound 49]	60 ng/mL (≈ 54.6 nM)	0.5 ng/mL (≈ 0.455 nM)	8000 ng/mL (≈ 7280 nM)	2000 ng/mL (≈ 1820 nM)	>8000 ng/mL
CO[C@H]1/C=C/O[C@@]2(C)Oc3c(C)c(O)c4c(=O)c(c5oc6cc(N7CCC(NC(=O)N8CCN(C)CC8)CC7)cc(O)c6nc-5c4c3C2=O)NC(=O)/C(C)=C\C=C\[C@H](C)[C@H](O)[C@@H](C)[C@@H](O)[C@@H](C)[C@H](OC(C)=O)[C@@H]1C [Compound 50]	30 ng/mL (≈ 29.3 nM)	0.12 ng/mL (≈ 0.117 nM)	4000 ng/mL (≈ 3900 nM)	500 ng/mL (≈ 488 nM)	>8000 ng/mL
CCOC(=O)NCC1CCN(c2cc(O)c3nc4c5c6c7c(C)c(O)c5c(=O)c(c-4oc3c2)NC(=O)/C(C)=C\C=C\[C@H](C)[C@H](O)[C@@H](C)[C@@H](O)[C@@H](C)[C@H](OC(C)=O)[C@H](C)[C@@H](OC)/C=C/O[C@@](C)(O7)C6=O)CC1 [Compound 51]	60 ng/mL (≈ 60.9 nM)	2 ng/mL (≈ 2.03 nM)	8000 ng/mL (≈ 8120 nM)	250 ng/mL (≈ 254 nM)	8000 ng/mL (≈ 8120 nM)
CO[C@H]1/C=C/O[C@@]2(C)Oc3c(C)c(O)c4c(=O)c(c5oc6cc(N7CCC(NC(=O)OC(C)(C)C)CC7)cc(O)c6nc-5c4c3C2=O)NC(=O)/C(C)=C\C=C\[C@H](C)[C@H](O)[C@@H](C)[C@@H](O)[C@@H](C)[C@H](O)[C@@H]1C [Compound 52]	15 ng/mL (≈ 15.7 nM)	0.25 ng/mL (≈ 0.261 nM)	4000 ng/mL (≈ 4180 nM)	120 ng/mL (≈ 125 nM)	>8000 ng/mL
COC1C=COC2(C)Oc3c(C)c(O)c4c(=O)c(c5oc6cc(N7CC8C(C7)C8N(C)C)cc(O)c6nc-5c4c3C2=O)NC(=O)C(C)=CC=CC(C)C(O)C(C)C(O)C(C)C(OC(C)=O)C1C (centres unmarked) [Compound 53]	60 ng/mL (≈ 64.9 nM)	8 ng/mL (≈ 8.65 nM)	4000 ng/mL (≈ 4320 nM)	2000 ng/mL (≈ 2160 nM)	>8000 ng/mL
COC1C=COC2(C)Oc3c(C)c(O)c4c(=O)c(c5oc6cc(N7CC8C(C7)C8N(C)C)cc(O)c6nc-5c4c3C2=O)NC(=O)C(C)=CC=CC(C)C(O)C(C)C(O)C(C)C(O)C1C (centres unmarked) [Compound 54]	8 ng/mL (≈ 9.06 nM)	0.5 ng/mL (≈ 0.566 nM)	2000 ng/mL (≈ 2260 nM)	250 ng/mL (≈ 283 nM)	>8000 ng/mL
CO[C@H]1/C=C/O[C@@]2(C)Oc3c(C)c(O)c4c(=O)c(c5oc6cc(N7CCC(CNC(C)=O)CC7)cc(O)c6nc-5c4c3C2=O)NC(=O)/C(C)=C\C=C\[C@H](C)[C@H](O)[C@@H](C)[C@@H](O)[C@@H](C)[C@H](OC(C)=O)[C@@H]1C [Compound 55]	8 ng/mL (≈ 8.38 nM)	0.25 ng/mL (≈ 0.262 nM)	1000 ng/mL (≈ 1050 nM)	500 ng/mL (≈ 524 nM)	8000 ng/mL (≈ 8380 nM)
CO[C@H]1/C=C/O[C@@]2(C)Oc3c(C)c(O)c4c(=O)c(c5oc6cc(N7CCC(CNC(C)=O)CC7)cc(O)c6nc-5c4c3C2=O)NC(=O)/C(C)=C\C=C\[C@H](C)[C@H](O)[C@@H](C)[C@@H](O)[C@@H](C)[C@H](O)[C@@H]1C [Compound 56]	4 ng/mL (≈ 4.38 nM)	1 ng/mL (≈ 1.1 nM)	120 ng/mL (≈ 131 nM)	250 ng/mL (≈ 274 nM)	8000 ng/mL (≈ 8760 nM)
CO[C@H]1/C=C/O[C@@]2(C)Oc3c(C)c(O)c4c(=O)c(c5oc6cc(N7CCC(c8ccccc8)CC7)cc(O)c6nc-5c4c3C2=O)NC(=O)/C(C)=C\C=C\[C@H](C)[C@H](O)[C@@H](C)[C@@H](O)[C@@H](C)[C@H](OC(C)=O)[C@@H]1C [Compound 57]	8 ng/mL (≈ 8.33 nM)	0.5 ng/mL (≈ 0.521 nM)	2000 ng/mL (≈ 2080 nM)	500 ng/mL (≈ 521 nM)	8000 ng/mL (≈ 8330 nM)
CO[C@H]1/C=C/O[C@@]2(C)Oc3c(C)c(O)c4c(=O)c(c5oc6cc(N7C[C@@H]8CCCN(C)[C@@H]8C7)cc(O)c6nc-5c4c3C2=O)NC(=O)/C(C)=C\C=C\[C@H](C)[C@H](O)[C@@H](C)[C@@H](O)[C@@H](C)[C@H](OC(C)=O)[C@@H]1C [Compound 58]	30 ng/mL (≈ 31.9 nM)	4 ng/mL (≈ 4.26 nM)	1000 ng/mL (≈ 1060 nM)	250 ng/mL (≈ 266 nM)	>8000 ng/mL
CO[C@H]1/C=C/O[C@@]2(C)Oc3c(C)c(O)c4c(=O)c(c5oc6cc(N7C[C@@H]8CCCN(C)[C@@H]8C7)cc(O)c6nc-5c4c3C2=O)NC(=O)/C(C)=C\C=C\[C@H](C)[C@H](O)[C@@H](C)[C@@H](O)[C@@H](C)[C@H](O)[C@@H]1C [Compound 59]	4 ng/mL (≈ 4.46 nM)	1 ng/mL (≈ 1.11 nM)	60 ng/mL (≈ 66.9 nM)	120 ng/mL (≈ 134 nM)	4000 ng/mL (≈ 4460 nM)
CCOC(=O)NCC1CCN(c2cc(O)c3nc4c5c6c7c(C)c(O)c5c(=O)c(c-4oc3c2)NC(=O)/C(C)=C\C=C\[C@H](C)[C@H](O)[C@@H](C)[C@@H](O)[C@@H](C)[C@H](O)[C@H](C)[C@@H](OC)/C=C/O[C@@](C)(O7)C6=O)CC1 [Compound 60]	8 ng/mL (≈ 8.48 nM)	0.5 ng/mL (≈ 0.53 nM)	500 ng/mL (≈ 530 nM)	60 ng/mL (≈ 63.6 nM)	>8000 ng/mL
CO[C@H]1/C=C/O[C@@]2(C)Oc3c(C)c(O)c4c(=O)c(c5oc6cc(N7CCC(CCO)CC7)cc(O)c6nc-5c4c3C2=O)NC(=O)/C(C)=C\C=C\[C@H](C)[C@H](O)[C@@H](C)[C@@H](O)[C@@H](C)[C@H](OC(C)=O)[C@@H]1C [Compound 61]	4 ng/mL (≈ 4.31 nM)	0.12 ng/mL (≈ 0.129 nM)	1000 ng/mL (≈ 1080 nM)	250 ng/mL (≈ 269 nM)	>8000 ng/mL
CO[C@H]1/C=C/O[C@@]2(C)Oc3c(C)c(O)c4c(=O)c(c5oc6cc(N7CCC(c8ccccc8)CC7)cc(O)c6nc-5c4c3C2=O)NC(=O)/C(C)=C\C=C\[C@H](C)[C@H](O)[C@@H](C)[C@@H](O)[C@@H](C)[C@H](O)[C@@H]1C [Compound 62]	15 ng/mL (≈ 16.3 nM)	8 ng/mL (≈ 8.71 nM)	8000 ng/mL (≈ 8710 nM)	500 ng/mL (≈ 545 nM)	>8000 ng/mL
COCCOC(=O)NC1CCN(c2cc(O)c3nc4c5c6c7c(C)c(O)c5c(=O)c(c-4oc3c2)NC(=O)/C(C)=C\C=C\[C@H](C)[C@H](O)[C@@H](C)[C@@H](O)[C@@H](C)[C@H](O)[C@H](C)[C@@H](OC)/C=C/O[C@@](C)(O7)C6=O)CC1 [Compound 63]	8 ng/mL (≈ 8.34 nM)	2 ng/mL (≈ 2.09 nM)	1000 ng/mL (≈ 1040 nM)	250 ng/mL (≈ 261 nM)	8000 ng/mL (≈ 8340 nM)
